Test results: patent US20030129629A1, “Methods and compositions for the identification, assessment, prevention, and therapy of human cancers” (Millennium Pharmaceuticals, Inc., priority 2000, published 2003)
Read-outs that look alike come from different tables or passages of the source.

Legend:
[1] = tested on: 60 cancer cell lines (NCI 60 cancer cell line series); details: cited from earlier work
[2] = tested on: 60 cancer cell lines (NCI 60 cancer cell line series); test: NCI-DTP in vitro cancer screen, sulforhodamine B (SRB) growth inhibition, 48 hour exposure; format: cell-based, human
How it was run: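 Potency is given as mean −log{GI50} from dose–response curves, manually binned into Low, Medium or High sensitivity. Sixty NCI-DTP tumour lines were treated 48 h with a duplicate, five-dose, ten-fold dilution series, and growth read by SRB staining of cell mass.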

For COc1cc([C@@H]2c3cc4c(cc3[C@@H](O[C@@H]3O[C@@H]5CO[C@@H](C)O[C@H]5[C@H](O)[C@H]3O)[C@H]3COC(=O)[C@H]23)OCO4)cc(OC)c1O [Etoposide], the “−Log (GI50)” value ([1]; Melanoma SK-MEL-2 CL10005) is listed as 4.5, the “−Log (GI50)” value ([1]; Melanoma SK-MEL-5 CL10007) is listed as 5.0 and the “−Log (GI50)” value ([1]; Melanoma SK-MEL-28 CL10008) is listed as 4.4. For the same compound, the “−Log (GI50)” value ([1]; Melanoma UACC-62 CL10020) was 4.9, the “−Log (GI50)” value ([1]; Melanoma UACC-257 CL10021) was 4.2 and the “−Log (GI50)” value ([1]; NSCLC A549/ATCC CL1004) was 5.2. The “−Log (GI50)” value ([1]; NSCLC EKVX CL1008) was 4.4, the “−Log (GI50)” value ([1]; NSCLC HOP-62 CL1026) was 5.5 and the “−Log (GI50)” value ([1]; NSCLC HOP-92 CL1029) was 4.8. For the same compound, the “−Log (GI50)” value ([1]; NSCLC NCI-H226 CL1013) was 5.2, the “classification of cell line as Low(1), Medium(2), High(3) sensitivity to compound” value (shortened to “classification of cell line”) ([2]; Breast BT-549 CL5013) was 2 and the “classification of cell line” value ([2]; Breast HS-578T CL5006) was 3. For the same compound, the “classification of cell line” value ([2]; Breast MCF7(I) CL5001) was 2, the “classification of cell line” value ([2]; Breast MCF7/ADRr CL5002) was 1 and the “classification of cell line” value ([2]; Breast MDA-MB-231 CL5005) was 2. For the same compound, the “classification of cell line” value ([2]; Breast MDA-MB-435 CL5011) was 2, the “classification of cell line” value ([2]; Breast MDA-N CL5012) was 3 and the “classification of cell line” value ([2]; Breast T-47D CL5014) was 3. The “classification of cell line” value ([2]; CNS SF-268 CL12014) was 2, the “classification of cell line” value ([2]; CNS SF-295 CL12015) was 2 and the “classification of cell line” value ([2]; CNS SF-539 CL12016) was 2. For the same compound, the “classification of cell line” value ([2]; CNS SNB-19 CL12002) was 2, the “classification of cell line” value ([2]; CNS SNB-75(I) CL12005) was 2 and the “classification of cell line” value ([2]; CNS U251(I) CL12009) was 2. The “classification of cell line” value ([2]; Colon COLO-250 CL4010) was 1, the “classification of cell line” value ([2]; Colon HCC-2998 CL4002) was 2 and the “classification of cell line” value ([2]; Colon HCT-15 CL4015) was 2. For the same compound, the “classification of cell line” value ([2]; Colon HCT-116 CL4003) was 2, the “classification of cell line” value ([2]; Colon HT29(I) CL4001) was 1 and the “classification of cell line” value ([2]; Colon KM12 CL4017) was 2. The “classification of cell line” value ([2]; Colon SW-620 CL4009) was 2, the “classification of cell line” value ([2]; Leukemia CCRF-CEM(I) CL7003) was 2 and the “classification of cell line” value ([2]; Leukemia HL-60(I) CL7008) was 2. The “classification of cell line” value ([2]; Leukemia K562(I) CL7005) was 2, the “classification of cell line” value ([2]; Leukemia MOLT-4 CL7006) was 3 and the “classification of cell line” value ([2]; Leukemia RPMI-8226(I) CL7010) was 2. The “classification of cell line” value ([2]; Leukemia SR CL7019) was 3, the “classification of cell line” value ([2]; Melanoma LOX IMVI CL10001) was 2 and the “classification of cell line” value ([2]; Melanoma M14 CL10014) was 3. The “classification of cell line” value ([2]; Melanoma MALME-3M CL10002) was 2, the “classification of cell line” value ([2]; Melanoma SK-MEL-2 CL10005) was 2 and the “classification of cell line” value ([2]; Melanoma SK-MEL-28 CL10008) was 1. The “sensitivity classification Low(1)/Medium(2)/High(3)” value ([2]; NSCLC NCI-H23(I) CL1001) was 2, the “sensitivity classification Low(1)/Medium(2)/High(3)” value ([2]; NSCLC NCI-H332M CL1017) was 1 and the “sensitivity classification Low(1)/Medium(2)/High(3)” value ([2]; NSCLC NCI-H460 CL1021) was 3. The “sensitivity classification Low(1)/Medium(2)/High(3)” value ([2]; NSCLC NCI-H522 CL1003) was 2, the “sensitivity classification Low(1)/Medium(2)/High(3)” value ([2]; Ovarian IGROV1 CL6010) was 1 and the “sensitivity classification Low(1)/Medium(2)/High(3)” value ([2]; Ovarian OVCAR-3 CL6001) was 1. For the same compound, the “sensitivity classification Low(1)/Medium(2)/High(3)” value ([2]; Ovarian OVCAR-4 CL6002) was 1, the “sensitivity classification Low(1)/Medium(2)/High(3)” value ([2]; Ovarian OVCAR-5 CL6003) was 1 and the “sensitivity classification Low(1)/Medium(2)/High(3)” value ([2]; Ovarian OVCAR-8 CL6005) was 2. The “sensitivity classification Low(1)/Medium(2)/High(3)” value ([2]; Ovarian SK-OV-3 CL6011) was 2, the “sensitivity classification Low(1)/Medium(2)/High(3)” value ([2]; Prostate DU-145 CL11003) was 3 and the “sensitivity classification Low(1)/Medium(2)/High(3)” value ([2]; Prostate PC-3(I) CL11001) was 3. For the same compound, the “sensitivity classification Low(1)/Medium(2)/High(3)” value ([2]; Renal 786-0 CL9018) was 2, the “sensitivity classification Low(1)/Medium(2)/High(3)” value ([2]; Renal A498 CL9013) was 2 and the “sensitivity classification Low(1)/Medium(2)/High(3)” value ([2]; Renal ACHN CL9023) was 3. The “sensitivity classification Low(1)/Medium(2)/High(3)” value ([2]; Renal CAKI-1 CL9015) was 2, the “sensitivity classification Low(1)/Medium(2)/High(3)” value ([2]; Renal RXF-393 CL9016) was 2 and the “sensitivity classification Low(1)/Medium(2)/High(3)” value ([2]; Renal SN12C CL9008) was 2. The “sensitivity classification Low(1)/Medium(2)/High(3)” value ([2]; Renal TK10 CL9024) was 2 and the “sensitivity classification Low(1)/Medium(2)/High(3)” value ([2]; Renal UO-31 CL9004) was 1.
In the case of COc1cccc2c1C(=O)c1c(O)c3c(c(O)c1C2=O)C[C@@](O)(C(=O)CO)C[C@@H]3OC1CC(N)CC(C)O1.Cl (stereo partly shown) [Deoxydoxorubicin], the “−Log (GI50)” value ([1]; CNS SF-268 CL12014) is listed as 7.3, the “−Log (GI50)” value ([1]; CNS U251(I) CL12009) is listed as 7.6 and the “−Log (GI50)” value ([1]; Colon HT29(I) CL4001) is listed as 7.5. For the same compound, the “−Log (GI50)” value ([1]; Melanoma UACC-62 CL10020) was 7.6, the “−Log (GI50)” value ([1]; NSCLC HOP-92 CL1029) was 7.4 and the “−Log (GI50)” value ([1]; Ovarian SK-OV-3 CL6011) was 7.3. The “−Log (GI50)” value ([1]; Prostate DU-145 CL11003) was 7.6, the “classification of cell line” value ([2]; Breast BT-549 CL5013) was 2 and the “classification of cell line” value ([2]; Breast MCF7/ADRr CL5002) was 1. The “classification of cell line” value ([2]; Breast MDA-N CL5012) was 2, the “classification of cell line” value ([2]; CNS SF-268 CL12014) was 2 and the “classification of cell line” value ([2]; CNS SF-295 CL12015) was 2. The “classification of cell line” value ([2]; CNS SF-539 CL12016) was 2, the “classification of cell line” value ([2]; CNS SNB-19 CL12002) was 2 and the “classification of cell line” value ([2]; CNS SNB-75(I) CL12005) was 2. For the same compound, the “classification of cell line” value ([2]; CNS U251(I) CL12009) was 2, the “classification of cell line” value ([2]; Colon COLO-250 CL4010) was 2 and the “classification of cell line” value ([2]; Colon HCT-15 CL4015) was 1. For the same compound, the “classification of cell line” value ([2]; Colon HT29(I) CL4001) was 2, the “classification of cell line” value ([2]; Colon KM12 CL4017) was 2 and the “classification of cell line” value ([2]; Leukemia CCRF-CEM(I) CL7003) was 2. For the same compound, the “classification of cell line” value ([2]; Leukemia K562(I) CL7005) was 2, the “classification of cell line” value ([2]; Leukemia RPMI-8226(I) CL7010) was 2 and the “classification of cell line” value ([2]; Leukemia SR CL7019) was 3. For the same compound, the “classification of cell line” value ([2]; Melanoma LOX IMVI CL10001) was 2, the “classification of cell line” value ([2]; Melanoma M14 CL10014) was 2 and the “classification of cell line” value ([2]; Melanoma MALME-3M CL10002) was 2. For the same compound, the “classification of cell line” value ([2]; Melanoma SK-MEL-28 CL10008) was 1, the “sensitivity classification Low(1)/Medium(2)/High(3)” value ([2]; NSCLC NCI-H23(I) CL1001) was 2 and the “sensitivity classification Low(1)/Medium(2)/High(3)” value ([2]; NSCLC NCI-H522 CL1003) was 2. The “sensitivity classification Low(1)/Medium(2)/High(3)” value ([2]; Ovarian IGROV1 CL6010) was 2, the “sensitivity classification Low(1)/Medium(2)/High(3)” value ([2]; Ovarian OVCAR-3 CL6001) was 2 and the “sensitivity classification Low(1)/Medium(2)/High(3)” value ([2]; Ovarian OVCAR-4 CL6002) was 2. For the same compound, the “sensitivity classification Low(1)/Medium(2)/High(3)” value ([2]; Ovarian OVCAR-8 CL6005) was 2, the “sensitivity classification Low(1)/Medium(2)/High(3)” value ([2]; Ovarian SK-OV-3 CL6011) was 2 and the “sensitivity classification Low(1)/Medium(2)/High(3)” value ([2]; Prostate DU-145 CL11003) was 2. The “sensitivity classification Low(1)/Medium(2)/High(3)” value ([2]; Prostate PC-3(I) CL11001) was 2, the “sensitivity classification Low(1)/Medium(2)/High(3)” value ([2]; Renal A498 CL9013) was 2 and the “sensitivity classification Low(1)/Medium(2)/High(3)” value ([2]; Renal SN12C CL9008) was 2. For the same compound, the “sensitivity classification Low(1)/Medium(2)/High(3)” value ([2]; Renal TK10 CL9024) was 1 and the “sensitivity classification Low(1)/Medium(2)/High(3)” value ([2]; Renal UO-31 CL9004) was 1.
